Results on 100 molecules are retold here after PubChem BioAssay AID1033 (Sanford-Burnham Center for Chemical Genomics, 2008).

One may read the Kd as the concentration at which binding is half-saturated.

This assay has as its target Chaperone protein DnaK (Escherichia coli (strain K12)) (UniProt P0A6Y8). Briefly: E. coli DnaK SBD ligand binding – biophysical, NMR, chaperone (AID 1033). The settings on record: Purified DnaK SBD.

Activity calls are given as the source filed them. The rule behind the calls is not given here. Where only a bound is given, the exact number is not on record here.

Chaperone protein DnaK (Escherichia coli (strain K12)), sequence (P0A6Y8 whole entry, looked up): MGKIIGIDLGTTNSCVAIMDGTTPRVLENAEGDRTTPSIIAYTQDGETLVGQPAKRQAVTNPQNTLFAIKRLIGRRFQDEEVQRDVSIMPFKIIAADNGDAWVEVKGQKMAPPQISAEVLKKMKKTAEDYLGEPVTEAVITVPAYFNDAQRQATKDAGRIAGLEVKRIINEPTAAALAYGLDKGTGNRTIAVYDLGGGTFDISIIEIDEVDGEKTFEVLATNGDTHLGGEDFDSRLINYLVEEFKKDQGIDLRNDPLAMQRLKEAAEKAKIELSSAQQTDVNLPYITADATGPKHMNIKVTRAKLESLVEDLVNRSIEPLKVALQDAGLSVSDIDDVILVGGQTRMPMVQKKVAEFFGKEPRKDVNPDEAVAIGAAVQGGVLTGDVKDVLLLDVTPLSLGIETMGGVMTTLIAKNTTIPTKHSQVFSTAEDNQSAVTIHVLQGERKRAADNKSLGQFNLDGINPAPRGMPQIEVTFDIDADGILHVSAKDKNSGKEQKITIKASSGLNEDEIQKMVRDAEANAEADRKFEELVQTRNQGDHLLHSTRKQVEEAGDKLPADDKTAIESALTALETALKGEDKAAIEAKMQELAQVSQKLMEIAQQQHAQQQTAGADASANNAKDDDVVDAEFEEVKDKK

`COc1ccc(CC(=O)c2ccc(O)cc2O)cc1`: the Kd is > 4 mM (inactive).
Then `O=C(O)Cc1c[nH]c2ccccc12`, with > 4 mM (inactive); and `O=C(O)c1ccc2c(c1)CCO2`, with > 4 mM (inactive).
The value for `Cc1cc(NC(=O)c2cnn3cccnc23)no1` was > 4 mM (inactive); that for `O=C(Nc1nnc(-c2ccccc2Cl)o1)c1ccco1` was > 4 mM (inactive).
As to `Cc1ccc(C)n1CCN1CCNCC1`, the Kd was > 4 mM (inactive).
`O=C(Nc1ccc2c(c1)OCO2)c1c(F)cccc1F`: the Kd was > 4 mM (inactive).
The value for `CN(c1ccccc1C(=O)N1CCCC1)S(C)(=O)=O` was > 4 mM (inactive); that for `O=C(c1ccc2c(c1)OCO2)N1CCC2(CC1)OCCO2` was > 4 mM (inactive); that for `CCC(C)C(=O)O[C@@H]1C[C@@]2(C)[C@H](c3ccoc3)OC(=O)CC23OC2(C)O[C@]14[C@]1(C)[C@@H](CC(=O)OC)C5(C)CC1(O)[C@](O)(C5OC(=O)C1(C)OC1C)[C@@H](OC(C)=O)[C@]34O2` (stereo not given in full) was > 4 mM (inactive).
`CC[C@@]1(O)C[C@H](O)c2c(cc3c(c2O)C(=O)c2c(O)ccc(O)c2C3=O)[C@H]1C(=O)OC`: the Kd was > 4 mM (inactive).
Then `CC(=O)O[C@H]1C[C@@H](OC(C)=O)C(C)(C)C2C[C@@H](OC(C)=O)[C@@]3(C)C4=CC(=O)O[C@@H](c5ccoc5)[C@]4(C)CCC3[C@]21C` (stereo not given in full), with > 4 mM (inactive); and `COc1ccc(Cl)cc1NC(=O)c1ccco1`, with > 4 mM (inactive).
`COCCn1cnc2cc(C)c(C)cc21`: the Kd is > 4 mM (inactive).
The value for `CC(=O)O[C@H]1C[C@@]2(C)[C@@H](C[C@@H](O)C3[C@]2(C)CC[C@H]2[C@H](C)[C@H](O)CC[C@]32C)/C1=C(/CCC=C(C)C)C(=O)O` (stereo not given in full) was > 4 mM (inactive); that for `CSc1nc(O)cc(=O)[nH]1` was > 4 mM (inactive); that for `CC(=O)NN1C(=O)/C(=C\c2ccc(O)cc2)SC1=S` was > 4 mM (inactive).
Then `Cc1nn2c(=O)/c(=C/c3cccc(F)c3)sc2nc1=O`, with > 4 mM (inactive); and `COc1cc(OC)c2c(OC)c(-c3ccc4c(c3)OCO4)c(=O)oc2c1`, with > 4 mM (inactive).
Then `Cc1noc(C)c1CSc1nc2ccccc2[nH]1`, with > 4 mM (inactive); and `Cc1c(C)[n+]([O-])c(-c2ccc([N+](=O)[O-])cc2)n1O`, with > 4 mM (inactive).
With `Cc1cc(C)n2nc(Cc3ccccc3)nc2n1`, the Kd is > 4 mM (inactive).
The value for `OCc1cccc2nonc12` was > 4 mM (inactive); that for `O=S(=O)(NCc1ccco1)N1CCOCC1` was > 4 mM (inactive).
For the molecule `Cn1c(CN2CC(c3ccccc3)CC2=O)n[nH]c1=S` (stereo not given), the Kd was > 4 mM (inactive).
For `CS(=O)(=O)N1CCN(C(=O)c2ccccc2F)CC1`, the Kd was > 4 mM (inactive).
Then `O=S1(=O)CCC(NC(=S)Nc2ccccn2)C1` (stereo not given), with > 4 mM (inactive); and `Cc1cc(C)c2nncn2n1`, with > 4 mM (inactive); and `COC(=O)c1oc2ccc(Cl)cc2c1NC(C)=O`, with > 4 mM (inactive).
The value for `CSc1nc(=O)[nH]c2c1CCC2` was > 4 mM (inactive); that for `Clc1ncc2[nH]cnc2n1` was > 4 mM (inactive); that for `CC(C)CCCC1(C)C=Cc2c(O)c3c(c(CCC(C)C)c2O1)OC12C(CC4CC1C(C)(C)OC2(CCC(C)C(=O)O)C4O)C3=O` (stereo not given) was > 4 mM (inactive).
The value for `C[C@H]1[C@H]2CCC3C4CC=C5C[C@@H](N(C)C)CC[C@]5(C)C4CC[C@@]32CN1C` (stereo not given in full) was > 4 mM (inactive).
For the molecule `Nc1ccccc1C(=O)N1CCOCC1`, the Kd is > 4 mM (inactive).
Take `COc1cc(C(=S)N2CCC(C(N)=O)CC2)ccc1O`: the Kd is > 4 mM (inactive).
The value for `O=C(Nc1nccs1)c1cccnc1` was > 4 mM (inactive).
The value for `CON(C)C(=O)Nc1ccc(Cl)cc1` was > 4 mM (inactive).
Regarding `Cc1nnc(SCC(=O)Nc2ccccc2)[nH]c1=O`, the Kd is > 4 mM (inactive).
For `NC(=O)CSc1ccc(-c2ccccc2)nn1`, the Kd is > 4 mM (inactive).
For `Cn1c(-c2ccccc2F)n[nH]c1=S`, the Kd is > 4 mM (inactive).
Consider `Cc1nc(NCc2ccco2)nc2c1C(=O)CC(C)C2` (stereo not given), for which the Kd was > 4 mM (inactive).
Consider `NC1=NC(=O)/C(=C\c2ccccc2)S1`, for which the Kd was > 4 mM (inactive).
Turning to `O=C(O)c1cccnc1`, the Kd is > 4 mM (inactive).
For `O=C(NCCCO)c1ccncc1`, the Kd is > 4 mM (inactive).
For `O=C(O)c1cnc2sc3ccccc3n2c1=O`, the Kd was > 4 mM (inactive).
As for `Cn1c(CSc2nc3ccccc3s2)n[nH]c1=S`, the Kd is > 4 mM (inactive).
The value for `CNc1ccccc1C(=O)O` was > 4 mM (inactive); that for `CCn1cnc2cc([N+](=O)[O-])ccc2c1=O` was > 4 mM (inactive); that for `O=C(O)c1coc2c1C(=O)CCC2` was > 4 mM (inactive).
Then `CCN1CCC2(CC1)CC1CC3C=CC1(CN2C(C)=O)O3` (stereo not given), with > 4 mM (inactive); and `CC1(C)C=Cc2c(cc3occ(-c4ccc5c(c4)OCO5)c(=O)c3c2O)O1`, with > 4 mM (inactive).
As for `O=C(c1nc2ccccc2s1)N1CCSCC1`, the Kd was > 4 mM (inactive).
The value for `Nc1ccc(CCC(=O)O)cc1` was > 4 mM (inactive); that for `O=C(O)C1CC(C2CCCCN2)CN2CCCCC12` (stereo not given) was > 4 mM (inactive); that for `O=C(O)Cc1nc(-c2ccncc2)n[nH]1` was > 4 mM (inactive).
As for `COc1cc(NC(=O)c2ccccc2)c(C)cc1N`, the Kd is > 4 mM (inactive).
With `CC(C1OC(C)(C)C(O)C1O)[C@@H]1CC[C@]2(C)C3=CCC4C(C)(C)C(=O)CC[C@]4(C)C3CC[C@@]12C` (stereo not given in full), the Kd is > 4 mM (inactive).
The value for `COc1ccc(-c2noc(-c3ccco3)n2)cc1OC` was > 4 mM (inactive); that for `OCC(O)C(O)C(O)CO` (stereo not given) was > 4 mM (inactive); that for `Nc1ccc2[nH]ncc2c1` was > 4 mM (inactive).
Then `CC(C)(C)P(=O)(O)c1ccccc1`, with > 4 mM (inactive); and `CSc1ncc(C(=O)O)n1Cc1ccccc1`, with > 4 mM (inactive).
The value for `O=C(CN1CCOCC1)Nc1cccc(Br)c1` was > 4 mM (inactive); that for `CN(C)C(=O)Nc1ccc(F)cc1F` was > 4 mM (inactive); that for `CCn1nnc2c(NCc3ccccn3)ncnc21` was > 4 mM (inactive).
Regarding `O=C(c1ccncc1)c1ccc(Br)cc1`, the Kd was > 4 mM (inactive).
The value for `CC(=O)c1ccc(CC2SC(N)=NC2=O)cc1` (stereo not given) was > 4 mM (inactive); that for `O=C1O[C@H](C(O)CO)C(O)=C1O` (stereo not given in full) was > 4 mM (inactive).
In the case of `CC(=O)O[C@@H]1CC2C(C)(C)C(=O)C3OC3[C@]2(C)C2CC[C@@]3(C)[C@H](c4ccoc4)OC(=O)C4OC43[C@@]21C` (stereo not given in full), the Kd was > 4 mM (inactive).
The value for `CCOc1ccc(Cl)cc1S(=O)(=O)N1CCCC1` was > 4 mM (inactive); that for `O=Cc1c(N2CCOCC2)nc2ccccn2c1=O` was > 4 mM (inactive).
Take `O=C(CSc1nnc2ccccn12)N1CCOCC1`: the Kd is > 4 mM (inactive).
The value for `NC(=O)CCn1ncc2ccccc21` was > 4 mM (inactive); that for `COc1ccc2[nH]cc(CCNC(C)=O)c2c1` was > 4 mM (inactive); that for `CC(C)(C)c1cc(CN)c(C(=O)O)o1` was > 4 mM (inactive).
The value for `COc1cc2c(cc1-c1coc3c4c(c(OC)cc3c1=O)OC(C)(C)C=C4)OCO2` was > 4 mM (inactive); that for `Nc1nnc(C(F)(F)F)s1` was > 4 mM (inactive); that for `COc1ccc(NC(=O)N2CCCCC2)cc1` was > 4 mM (inactive).
`CC(C)c1ccc2c(c1O)CC[C@H]1C3=C(CC[C@]21C)C(=O)OC3`: the Kd is > 4 mM (inactive).
Then `COc1ccc2c3c1O[C@H]1C[C@@H](O)C=C[C@@]31CCN(C)C2`, with > 4 mM (inactive); and `CC(=O)O[C@@H]1c2c(ccc3ccc(=O)oc23)OC(C)(C)[C@@H]1OC(=O)CC(C)C`, with > 4 mM (inactive); and `O=C(O)C1CSC2(CCCCC2)N1` (stereo not given), with > 4 mM (inactive).
Regarding `CNC(=O)Cn1c(=O)n(C)c2ccccc21`, the Kd is > 4 mM (inactive).
In the case of `O=C1c2ccccc2C(=O)N1Cc1ccco1`, the Kd is > 4 mM (inactive).
The value for `CC(=O)Nc1ccc2c(c1)C(=O)N(C1CCCCC1)C2=O` was > 4 mM (inactive).
The value for `OCCNc1ccccn1` was > 4 mM (inactive).
As to `Cc1cc(NC(=O)c2ccc3c(c2)OCCO3)no1`, the Kd is > 4 mM (inactive).
The value for `CC[C@@]1(O)C(=O)OCc2c1cc1n(c2=O)Cc2cc3ccccc3nc2-1` was > 4 mM (inactive); that for `COC(=O)c1cccnc1Oc1ccccc1` was > 4 mM (inactive).
For `CCOCC(=O)NCc1n[nH]c(=O)c2ccccc12`, the Kd is > 4 mM (inactive).
As for `COC(=O)[C@]1(C)CC[C@]2(C)CC[C@]3(C)C4=CC=C5C(=CC(=O)C(O)=C5C)[C@]4(C)CC[C@@]3(C)[C@@H]2C1`, the Kd is > 4 mM (inactive).
Then `O=C(NCc1cccs1)c1nn2cccnc2c1Cl`, with > 4 mM (inactive); and `C/C1=C/CC(C)(C)/C=C/C/C(C)=C/CC1`, with > 4 mM (inactive); and `COc1ccccc1N1C(=N)SCC1=O`, with > 4 mM (inactive).
Turning to `O=C1NC(=O)C(=Cc2ccccc2)C(=O)N1`, the Kd was > 4 mM (inactive).
`Cc1nnsc1C(=O)Nc1ccccc1[N+](=O)[O-]`: the Kd was > 4 mM (inactive).
As for `CC(O)C(=O)N/N=C/c1cccs1` (stereo not given), the Kd was > 4 mM (inactive).
In the case of `CC1(C)CC2(C)N(N)C(=O)CN2C(=S)N1` (stereo not given), the Kd was > 4 mM (inactive).
Then `Cc1cc(=O)[nH]c(N2CCCCC2)n1`, with > 4 mM (inactive).
With `CCN1CCn2c1nc(N1CCOCC1)nc2=O`, the Kd is > 4 mM (inactive).
